According to patent publication US20210315893A1 (Galapagos NV, priority 2017, published 2021):

Tests used:
[1] = molecular target: T1, human GPCR sphingosine 1-phosphate receptor 2 (Homo sapiens, UniProt O95136); assay: S1PR2 antagonist Ca2+ flux assay; assay type: cell-based; conditions: antagonist mode, CHO-S1PR2 cells, S1P at EC80, Ca2+ fluorescence; read-out: S1P2 EC50 (nM), S1P2 antagonist EC50
T1 construct: host or cells: CHO
Protocol: Triggering of S1PR2 by administration of Sphingosine-1-phosphate leads to a transient increase in intracellular Ca^2+. The Ca^2+ flux assays are measuring the release of Ca^2+ intracellularly by use of a Ca^2+ sensitive fluorescent dye. The assay is firstly run in agonist mode (incubation of compounds alone) to ensure that the Ca^2+ released measured is not caused by the test compound having an agonistic effect. Then the assay is continued in antagonist mode (Sphingosine-1-Phosphate added to incubated medium containing the test compounds).
CHO cells stably overexpressing human GPCR sphingosine 1-phosphate receptor 2 (CHO-S1PR2 Perkin Elmer; ES-594-A) are seeded from a frozen stock in 384 wells sterile microplates (50 μL; 7,500 cells/well) and are incubated overnight at 37° C. and 5% CO2. The next day cells are washed twice with starvation medium (F-12 Ham's medium containing 0.1% BSA (Fatty acid free: FAF)) and left in 25 μL starvation medium for 1 h at 37° C., 5% CO2. After this starvation cells are incubated with 25 μL buffer containing the Ca^2+-sensitive fluorescent dye (0.5 mg Fluo8+125 mg Allura Red in 100 mL of 1% DMSO, in HBSS+20 mM Hepes+5 mM probenecid). The cells are incubated for an additional 1 h after which 10 μL compounds, diluted in HBSS buffer with 20 mM Hepes and 0.1% BSA (FAF), are added to the cells and intracellular Ca2+ changes are immediately measured by reading fluorescence during 3 min (FDSS/pCELL reader). The ratio of the maximal fluorescence over the background fluorescence before compound injection is used to determine compound response.
After readout of the agonist activity, the plates are incubated for 15 min at 37° C. and 5% CO2. Then, cells are stimulated with 10 μL Sphingosine-1-Phosphate (S1P) (Avanti Polar lipids-860492P) at its EC80 concentration. Intracellular Ca2+ changes are immediately measured by reading fluorescence during 3 min (FDSS/pCELL reader). The ratio of the maximal fluorescence over the background fluorescence before compound injection is used to determine compound response.
The obtained ratio's for agonist and antagonist readout were normalized versus vehicle and EC 100 of S1P ascontrols for agonist mode and versus vehicle and […]. From these normalized data EC50 of the compounds are derived.

[2] = molecular target: T2, S1PR2 (Homo sapiens, UniProt O95136); assay: S1PR2 binding assay (competition with radioactively labeled S1P, SpA); conditions: membranes from stable cell line over expressing S1PR2, SpA beads; read-out: S1P2 EC50 (nM), S1PR2 binding EC50
T2 construct: expressed in transfected cells
T2 sequence (O95136 whole entry): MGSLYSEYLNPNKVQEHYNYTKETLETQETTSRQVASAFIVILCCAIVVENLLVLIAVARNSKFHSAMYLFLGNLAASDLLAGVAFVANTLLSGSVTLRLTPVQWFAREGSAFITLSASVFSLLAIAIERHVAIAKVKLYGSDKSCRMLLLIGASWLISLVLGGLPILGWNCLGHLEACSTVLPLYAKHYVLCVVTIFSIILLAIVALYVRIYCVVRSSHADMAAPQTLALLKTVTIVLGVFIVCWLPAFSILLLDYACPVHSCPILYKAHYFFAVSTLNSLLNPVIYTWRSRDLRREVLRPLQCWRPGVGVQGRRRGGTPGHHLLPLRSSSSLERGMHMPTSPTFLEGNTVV
Protocol: The following assay can be used for determination of S1PR2 binding. The binding assay measures the potential to compete with radioactively labeled S1P for binding to the receptor.
The assay is performed in a96 well plate where the following reagents are added. First 50 μL compound is added into the assay plate, followed by addition of 100 μL ofa mixture consisting of membrane and Scintillation proximity Assay (SpA) beads [mixture consists […] membranes derived from stable cell line over expressing SPR2, 0.5 mg/well Polyvinyltoluene-Wheat Germ-Agglutinin (PVT-WGA) beads (Perkin Elmer, RPNQOO1)]. All components are diluted in assay buffer containing 20 mM Tris pH 7.5; 10 mM MgCl2; 100 mM NaCl; 0.4% BSA FAF; 1 mM Na3VO4) and incubated for 15 min until addition to the assay plate. Subsequently, 50 ul of radioactively labeled S1P is added to the wells (Sphingosine, D-erythro-[3-3H] 1-phosphate; ARC; ART0778). After an incubation for 2 h at room temperature, plates are centrifuged at 2000 rpm during 20 min. Plates are read on a Topcount reader (Perkin Elmer) immediately after centrifugation (readout time, 1 min/well).

T1 sequence (O95136 whole entry): as above

| EC50 [1] | EC50 [2] | SMILES |
| --- | --- | --- |
| 345 nM | 1300 nM | CCS(=O)(=O)C1CCN(C(=O)Cn2nc(Cc3nc4cc(OCC(F)F)c(C#N)cc4[nH]3)c3ccccc3c2=O)CC1 [Compound 240, 6-(2,2-difluoroethoxy)-2-[[3-[2-(4-ethylsulfonyl-1-piperidyl)-2-oxo-ethyl]-4-oxo-phthalazin-1-yl]methyl]-3H-benzimidazole-5-carbonitrile] |
| 26.1 nM | 137 nM | CC(C)(C)C(O)CNC(=O)Cn1nc(Cc2nc3cc(OCC(F)F)c(C#N)cc3[nH]2)c2ccccc2c1=O (centres unmarked) [Compound 222, 2-[4-[[6-cyano-5-(2,2-difluoroethoxy)-1H-benzimidazol-2-yl]methyl]-1-oxo-phthalazin-2-yl]-N-(2-hydroxy-3,3-dimethylbutyl)acetamide] |
| 4160 nM | 1270 nM | O=c1c2ccccc2c(Cc2nc3cc(Cl)c(OC(F)(F)F)cc3[nH]2)nn1CC1CNCCO1 (centres unmarked) [Compound 63, 4-[[5-chloro-6-(trifluoromethoxy)-1H-benzimidazol-2-yl]methyl]-2-(morpholin-2-ylmethyl)phthalazin-1-one] |
| 16.3 nM | 122 nM | N#Cc1cc2[nH]c(Cc3nn(CC(=O)NCC4CC(F)(F)C4)c(=O)c4ccccc34)nc2cc1OCC(F)F [Compound 232, 2-[4-[[6-cyano-5-(2,2-difluoroethoxy)-1H-benzimidazol-2-yl]methyl]-1-oxo-phthalazin-2-yl]-N-[(3,3-difluorocyclobutyl)methyl]acetamide] |
| 77.9 nM | 453 nM | N#Cc1cc2[nH]c(Cc3nn(CC(=O)N4CCCC(O)C4)c(=O)c4ccccc34)nc2cc1OCC(F)F (centres unmarked) [Compound 231, 6-(2,2-difluoroethoxy)-2-[[3-[2-(3-hydroxy-1-piperidyl)-2-oxo-ethyl]-4-oxo-phthalazin-1-yl]methyl]-3H-benzimidazole-5-carbonitrile] |
| 21.1 nM | 52.5 nM | N#Cc1cc2[nH]c(Cc3nn(CC(=O)NCC(F)(F)CO)c(=O)c4ccccc34)nc2cc1OCC(F)F [Compound 228, 2-[4-[[6-cyano-5-(2,2-difluoroethoxy)-1H-benzimidazol-2-yl]methyl]-1-oxo-phthalazin-2-yl]-N-(2,2-difluoro-3-hydroxypropyl)acetamide] |
| 13.6 nM | 775 nM | CC(C(=O)NS(C)(=O)=O)n1nc(Cc2nc3cc(OCC4CC4)c(Cl)cc3[nH]2)c2ccccc2c1=O (centres unmarked) [Compound 246, N-{2-[4-(6-Chloro-5-cyclopropylmethoxy-1H-benzoimidazol-2-ylmethvl)-1-oxo-1H-phthalazin-2-yl]-propionyl}-methanesulfonamide] |
| 781 nM | 1740 nM | N#Cc1cc2[nH]c(Cc3nn(CC(=O)N4CC5(CCOCC5)C4)c(=O)c4ccccc34)nc2cc1OCC(F)F [Compound 239, 6-(2,2-difluoroethoxy)-2-[[3-[2-(7-oxa-2-azaspiro[3.5]nonan-2-yl)-2-oxo-ethyl]-4-oxo-phthalazin-1-yl]methyl]-3H-benzimidazole-5-carbonitrile] |
| 66.2 nM | 552 nM | N#Cc1cc2[nH]c(Cc3nn(CC(=O)NC(C#N)C4CC4)c(=O)c4ccccc34)nc2cc1OCC(F)F (centres unmarked) [Compound 226, N-[cyano-(cyclopropyl)methyl]-2-[4-[[6-cyano-5-(2,2-difluoroethoxy)-1H-benzimidazol-2-yl]methyl]-1-oxo-phthalazin-2-yl]acetamide] |
| 1380 nM | 1090 nM | CC(C)(C)NC(=O)Cn1nc(Cc2nc3cc(Cl)c(OC(F)(F)F)cc3[nH]2)c2c(c1=O)CCCC2 [Compound 147] |
| 120 nM | 503 nM | N#Cc1cc2[nH]c(Cc3nn(CC(=O)NCCS(N)(=O)=O)c(=O)c4ccccc34)nc2cc1OCC(F)F [Compound 229, 2-[4-[[6-cyano-5-(2,2-difluoroethoxy)-1H-benzimidazol-2-yl]methyl]-1-oxo-phthalazin-2-yl]-N-(2-sulfamoylethyl)acetamide] |
| 890 nM | 1100 nM | O=c1c2ccccc2c(Cc2nc3cc(Cl)c(OC(F)(F)F)cc3[nH]2)nn1CC1CCCNC1 (centres unmarked) [Compound 58, 4-[[6-chloro-5-(trifluoromethoxy)-1H-benzimidazol-2-yl]methyl]-2-(3-piperidylmethyl)phthalazin-1-one] |
| 1460 nM | 4570 nM | O=c1c2ccccc2c(Cc2nc3cc(Cl)c(OC(F)(F)F)cc3[nH]2)nn1CC1CCCN1 (centres unmarked) [Compound 55, 4-[[6-chloro-5-(trifluoromethoxy)-1H-benzimidazol-2-yl]methyl]-2-(pyrrolidin-2-ylmethyl)phthalazin-1-one] |
| 408 nM | 1950 nM | N#Cc1cc2[nH]c(Cc3nn(CC(=O)NCC(F)(F)F)c(=O)c4ccccc34)nc2cc1OCC(F)F [Compound 230, 2-[4-[[6-cyano-5-(2,2-difluoroethoxy)-1H-benzimidazol-2-yl)methyl]-1-oxo-phthalazin-2-yl]-N-(2,2,2-trifluoroethyl)acetamide] |
| 63.8 nM | 2500 nM | O=C(O)Cn1nc(Cc2nc3cc(OCC(F)F)c(F)cc3[nH]2)c2ccccc2c1=O [Compound 130, 2-[4-[[5-(2,2-difluoroethoxy)-6-fluoro-1H-benzimidazol-2-yl]methyl]-1-oxo-phthalazin-2-yl]acetic acid] |
| 19.6 nM | 232 nM | N#Cc1cc2[nH]c(Cc3nn(CC(=O)NCCC(F)(F)F)c(=O)c4ccccc34)nc2cc1OCC(F)F [Compound 224, 2-[4-[[6-cyano-5-(2,2-difluoroethoxy)-1H-benzimidazol-2-yl]methyl]-1-oxo-phthalazin-2-yl]-N-(3,3,3-trifluoropropyl)acetamide] |
| 79.3 nM | 1390 nM | CCOc1cc2nc(Cc3nn(CC(=O)O)c(=O)c4ccccc34)[nH]c2cc1F [Compound 129, 2-[4-[(5-ethoxy-6-fluoro-1H-benzimidazol-2-yl)methyl]-1-oxo-phthalazin-2-yl]acetic acid] |
| 87.9 nM | 2470 nM | CCOc1cc2nc(Cc3nn(CC(=O)NS(C)(=O)=O)c(=O)c4ccccc34)[nH]c2cc1F [Compound 247, 2-[4-[(5-ethoxy-6-fluoro-1H-benzimidazol-2-yl)methyl]-1-oxo-phthalazin-2-yl]-N-methylsulfonyl-acetamide] |
| 18.9 nM | 57.1 nM | Cc1cccc2c(=O)n(CC(=O)N3CCOCC3)nc(Cc3nc4cc(OCC(F)F)c(C#N)cc4[nH]3)c12 [Compound 66, 6-(2,2-difluoroethoxy)-2-[[8-methyl-3-(2-morpholino-2-oxo-ethyl)-4-oxo-phthalazin-1-yl]methyl]-3H-benzimidazole-5-carbonitrile] |
| ≥ 19900 nM | 13400 nM | CN1CCCC(Cn2nc(Cc3nc4cc(Cl)c(OC(F)(F)F)cc4[nH]3)c3ccccc3c2=O)C1 (centres unmarked) [Compound 39, 4-[[6-chloro-5-(trifluoromethoxy)-1H-benzimidazol-2-yl]methyl]-2-[(1-methyl-3-piperidyl)methyl]phthalazin-1-one] |
| 47.2 nM | 372 nM | CN(C)C(=O)CN(C)C(=O)Cn1nc(Cc2nc3cc(OCC(F)F)c(C#N)cc3[nH]2)c2ccccc2c1=O [Compound 241, 2-[4-[[6-cyano-5-(2,2-difluoroethoxy)-1H-benzimidazol-2-yl]methyl]-1-oxo-phthalazin-2-yl]-N-[2-(dimethylamino)-2-oxo-ethyl]-N-methyl-acetamide] |
| 68.8 nM | 330 nM | N#Cc1cc2[nH]c(Cc3nn(CC(=O)NCC(F)F)c(=O)c4ccccc34)nc2cc1OCC(F)F [Compound 223, 2-[4-[[6-cyano-5-(2,2-difluoroethoxy)-1H-benzimidazol-2-yl]methyl]-1-oxo-phthalazin-2-yl]-N-(2,2-difluoroethyl)acetamide] |
